Measured values published in US20260317319A1, “NOVEL ERGOLINES AND METHODS OF TREATING MOOD DISORDERS” (Gilgamesh Pharma Inc., priority 2023, published 2026).

Test system: C57BL/6 mice
Experiment: Marble burying test (MBT) in mice
Format: in vivo, mouse
Settings: 30-minute period, compared to vehicle, FIG. 3
Protocol: Compound 1 produced an anxiolytic-like effect in the marble burying test (MBT) in C57BL/6 mice (FIG. 3).
Animals. Adult male C57BL/6 mice, aged 8-10 weeks (body weight 20-25 g) were used in these experiments. Animals were housed under controlled temperatures and 12-hour light/dark cycles (lights on between 07:00-19:00 h), with ad libitum food and water. This study was carried out in strict accordance with the requirements of the Committee for the Purpose of Control and Supervision of Experiments on Animals (CPCSEA), India. All efforts were made to minimize suffering.
Marble Burying Test (MBT). […] Mice were handled for about 2 min daily for the 3 days prior to the beginning of the experimental procedure. Twenty glass marbles (16 mm diameter) were placed with equal distances in a 5×4 pattern on a 5-cm layer of corn-cob bedding, with marbles at least 2 cm from the borders of the cage. The total number of marbles buried were counted in three 10-minute time bins (total 30 minutes). A marble was considered buried when it was >⅔ covered by bedding material.
Statistical Analysis. The data points shown are the mean±standard error of the mean (SEM). Analysis was performed using GraphPad Prism 6. Comparisons between groups were performed using the one-way analysis of variance (ANOVA), followed by Dunnett's test for comparisons to vehicle. […]

CCCN1C[C@H](C(=O)N(CC)CC)C=C2c3cccc4[nH]cc(c34)C[C@H]21 [Compound 1, (6aR,9R)—N,N-diethyl-7-propyl-4,6,6a,7,8,9-hexahydroindolo[4,3-fg]quinoline-9-carboxamide]
number of marbles buried: reduced the number of marbles buried in a 30-minute period compared to vehicle
